Measured values reported in the NIST ThermoML archive (doi:10.1021/acs.jced.8b00786).

Experiment: xn = mol fraction of the nth substance listed
Settings: Liquid; for viscosity: Capillary tube (Ostwald / Ubbelohde) method; for mass density: Vibrating tube method

CC(C)CCCC(C)CCCC(C)CCCCC(C)CCCC(C)CCCC(C)C (stereo not drawn) [2,6,10,15,19,23-hexamethyltetracosane] + O=C=O
Settings	mass density [kg/m3]	viscosity [mPa·s]
313.15 K, 2790 kPa, x2 = 0.199	796.7	11.4
313.15 K, 3900 kPa, x2 = 0.299	799.1	9.2
313.15 K, 5300 kPa, x2 = 0.519	804.5	5.1
313.15 K, 11290 kPa, x2 = 0.519	810.3	5.59
313.15 K, 12320 kPa, x2 = 0.299	805.8	10.5
313.15 K, 12560 kPa, x2 = 0.199	804.5	13.39
313.15 K, 21910 kPa, x2 = 0.519	819.7	6.47
313.15 K, 23100 kPa, x2 = 0.299	813.6	12.46
313.15 K, 23440 kPa, x2 = 0.199	812.5	16.14
313.15 K, 42900 kPa, x2 = 0.519	836.1	8.58
313.15 K, 44510 kPa, x2 = 0.299	828.1	17.08
313.15 K, 45240 kPa, x2 = 0.199	826.3	22.88
313.15 K, 57150 kPa, x2 = 0.519	846	10.52
313.15 K, 58570 kPa, x2 = 0.299	836.5	21.56
313.15 K, 60140 kPa, x2 = 0.199	834.5	28.7
313.15 K, 71140 kPa, x2 = 0.519	854.8	12.5
313.15 K, 73410 kPa, x2 = 0.299	844.9	26.51
313.15 K, 74430 kPa, x2 = 0.199	841.6	35.87
338.15 K, 3100 kPa, x2 = 0.199	780.2	5.61
338.15 K, 3320 kPa, x2 = 0.299	782.1	4.69
338.15 K, 6440 kPa, x2 = 0.519	787.1	2.96
338.15 K, 10860 kPa, x2 = 0.519	791.5	3.18
338.15 K, 11180 kPa, x2 = 0.299	788.3	5.36
338.15 K, 11690 kPa, x2 = 0.199	787.3	6.41
338.15 K, 21260 kPa, x2 = 0.519	801	3.58
338.15 K, 21990 kPa, x2 = 0.199	795.1	7.61
338.15 K, 21990 kPa, x2 = 0.299	796.2	6.16
338.15 K, 42140 kPa, x2 = 0.519	817.7	4.78
338.15 K, 42690 kPa, x2 = 0.299	810.4	8.3
338.15 K, 42870 kPa, x2 = 0.199	808.7	10.48
338.15 K, 56660 kPa, x2 = 0.519	827.7	5.67
338.15 K, 57330 kPa, x2 = 0.299	819.2	10.09
338.15 K, 57570 kPa, x2 = 0.199	817.1	12.79
338.15 K, 69970 kPa, x2 = 0.199	823.5	15.43
338.15 K, 70400 kPa, x2 = 0.519	836.4	6.59
338.15 K, 71030 kPa, x2 = 0.299	826.9	12.17
363.15 K, 2670 kPa, x2 = 0.199	763.2	3.2
363.15 K, 3820 kPa, x2 = 0.299	766.2	2.86
363.15 K, 7280 kPa, x2 = 0.519	769.5	1.93
363.15 K, 10740 kPa, x2 = 0.519	772.7	2.06
363.15 K, 10840 kPa, x2 = 0.299	771.7	3.14
363.15 K, 11090 kPa, x2 = 0.199	770.2	3.71
363.15 K, 21180 kPa, x2 = 0.299	779.2	3.59
363.15 K, 21340 kPa, x2 = 0.519	782.5	2.31
363.15 K, 21420 kPa, x2 = 0.199	778.2	4.33
363.15 K, 42180 kPa, x2 = 0.519	799.3	3
363.15 K, 42250 kPa, x2 = 0.299	793.2	4.8
363.15 K, 42490 kPa, x2 = 0.199	792.2	5.75
363.15 K, 56170 kPa, x2 = 0.519	809.2	3.43
363.15 K, 56390 kPa, x2 = 0.299	801.8	5.69
363.15 K, 56730 kPa, x2 = 0.199	800.5	6.83
363.15 K, 70120 kPa, x2 = 0.519	818	4.08
363.15 K, 70320 kPa, x2 = 0.299	809.6	6.81
363.15 K, 70780 kPa, x2 = 0.199	807.9	8.08
